From patent US5574008A, “Biologically active fragments of glucagon-like insulinotropic peptide” (Eli Lilly and Company, priority 1994, dated 1996)

System: fasted normal Sprague-Dawley rats
Assay: In vivo hyperglycemic clamp assay (glucose up-take assay)
Design: species or system rat
Settings: 0.3 nmol/kg iv bolus at 60 min
From the text: In vivo Hyperglycemic Clamp Assay (Glucose Up-take Assay) Male Sprague-Dawley rats (Charles Rivers) weighing about 350 grams were allowed to acclimate to their surroundings for a week after which they were cannulated under isoflurane inhalation anesthetic. Two catheters were implanted into the jugular vein for infusions of glucose and GLP-1 fragment. Another catheter was implanted into the carotid artery for sampling blood. The catheters were exteriorized through the skin at the vertex of the head, filled with a glycerol/heparin solution (30 ml glycerol/10 ml heparin from a 1000 u/ml stock solution), and closed off with a one centimeter stainless steel plug. The rats were housed individually in wire mesh cages and were fed ad libitum on a standard rat chow diet. Each animal was given at least one week to recover from surgery before testing any GLP-1 fragments for biological activity. The rats were fasted overnight; on the morning of the experiment, sampling tubes were connected to the indwelling catheters, and the tubes were enclosed in a light weight stainless steel spring for protection. The rats were acclimated to their cages for 15 minutes. All experiments were carried out in conscious, free moving rats. A basal blood sample was taken for measurement of insulin and glucose levels at time zero on the timer. The rats were then given a bolus of 20% dextrose to raise plasma glucose to either 150 mg/dl (8.3 mM) or 200 mg/dl (11.2 mM). Plasma glucose levels were maintained at the chosen level by measuring plasma glucose levels approximately every 5 minutes and adjusting the calibrated variable infusion pump as needed to maintain the established blood glucose levels. Blood samples were collected at 45 and 60 minutes for the control period measurements. At 60 minutes into the clamp, 0.3 nmol/kg of the experimental GLP-1 fragment was injected via the jugular vein catheter and flushed with saline. […] The blood samples were centrifuged in a micro centrifuge to separate the plasma component. Plasma glucose was measured on a Beckman Glucose analyzer II using the glucose oxidase method. Plasma insulin was determined by standard radio immunoassay as per the manufacturer's directions (Diagnostic Products Corp.). The activity of the GLP-1 fragment was determined by the percentage change in glucose infusion rate and change in insulin secreted. These two parameters were compared to control rats that received only diluent. Note: This assay is based on reports that GLP-1 insulinotropic action is glucose dependent. The assay protocol eliminates variability due to falling glucose levels in other protocols using the "bolus" method. The hyperglycemic clamp involved administration of variable amounts of glucose (20% dextrose) to maintain glucose at a constant level of 8.3 or 11.2 mM in fasted normal Sprague-Dawley rats. The hyperglycemic clamp is maintained for 1 hour after which the GLP-1 fragment is injected as a bolus through the jugular vein. […] The glucose infusion rate (GIR) in the last 15 minutes of the control period and after the injection of the peptide is calculated. The activity of the peptide is determined by the increase in glucose infusion rate and change in insulin secreted after the injection of the peptide.

[1] = 150 mg/dl plasma glucose clamp, time 60 min
[2] = 150 mg/dl plasma glucose clamp, time 62 min
[3] = 150 mg/dl plasma glucose clamp, time 64 min
[4] = 150 mg/dl plasma glucose clamp, time 66 min
[5] = 150 mg/dl plasma glucose clamp, time 68 min
[6] = 150 mg/dl plasma glucose clamp, time 70 min
[7] = 150 mg/dl plasma glucose clamp, time 75 min
[8] = 150 mg/dl plasma glucose clamp, time 80 min
[9] = 150 mg/dl plasma glucose clamp, time 85 min
[10] = 150 mg/dl plasma glucose clamp, time 90 min
[11] = 150 mg/dl plasma glucose clamp, time 100 min
[12] = 150 mg/dl plasma glucose clamp, time 110 min
[13] = 150 mg/dl plasma glucose clamp, time 120 min
[14] = 150 mg/dl plasma glucose clamp, time 130 min
[15] = 150 mg/dl plasma glucose clamp, time 140 min
[16] = 150 mg/dl plasma glucose clamp, time 150 min
[17] = 200 mg/dl plasma glucose clamp, time 60 min
[18] = 200 mg/dl plasma glucose clamp, time 62 min
[19] = 200 mg/dl plasma glucose clamp, time 64 min
[20] = 200 mg/dl plasma glucose clamp, time 66 min
[21] = 200 mg/dl plasma glucose clamp, time 68 min
[22] = 200 mg/dl plasma glucose clamp, time 70 min
[23] = 200 mg/dl plasma glucose clamp, time 75 min
[24] = 200 mg/dl plasma glucose clamp, time 80 min
[25] = 200 mg/dl plasma glucose clamp, time 85 min
[26] = 200 mg/dl plasma glucose clamp, time 90 min
[27] = 200 mg/dl plasma glucose clamp, time 100 min
[28] = 200 mg/dl plasma glucose clamp, time 110 min
[29] = 200 mg/dl plasma glucose clamp, time 120 min
[30] = 200 mg/dl plasma glucose clamp, time 130 min
[31] = 200 mg/dl plasma glucose clamp, time 140 min
[32] = 200 mg/dl plasma glucose clamp, time 150 min

Which “% Change in GIR” value [1] does the source give for GLP-1(7-37)OH here?
The value was 11.15%.

What about the “Plasma Insulin Change” value [1] of the same substance?
Its value is 1.140 ng/mL.

And the “% Change in GIR” value [2]?
The value was -0.20%.

What about the “Plasma Insulin Change” value [2] of the same substance?
Its value is 7.233 ng/mL.

What about the “% Change in GIR” value [3] of the same substance?
Its value is 11.15%.

What about the “Plasma Insulin Change” value [3] of the same substance?
Its value is 1.464 ng/mL.

What about the “% Change in GIR” value [4] of the same substance?
The value was 1.66%.

What about the “Plasma Insulin Change” value [4] of the same substance?
The value was 0.324 ng/mL.

And the “% Change in GIR” value [5]?
The value was 5.64%.

What about the “Plasma Insulin Change” value [5] of the same substance?
The value was -0.016 ng/mL.

What about the “% Change in GIR” value [6] of the same substance?
Its value is 19.95%.

And the “Plasma Insulin Change” value [6]?
Its value is -0.375 ng/mL.

What about the “% Change in GIR” value [7] of the same substance?
Its value is 71.90%.

What about the “Plasma Insulin Change” value [7] of the same substance?
Its value is -0.465 ng/mL.

What about the “% Change in GIR” value [8] of the same substance?
The value was 92.63%.

What about the “Plasma Insulin Change” value [8] of the same substance?
Its value is -0.357 ng/mL.

And the “% Change in GIR” value [9]?
The value was 61.76%.

What about the “Plasma Insulin Change” value [9] of the same substance?
Its value is -0.020 ng/mL.

What about the “% Change in GIR” value [10] of the same substance?
The value was 14.74%.

What about the “Plasma Insulin Change” value [10] of the same substance?
Its value is -0.181 ng/mL.

And the “% Change in GIR” value [11]?
The value was -26.22%.

And the “Plasma Insulin Change” value [11]?
The value was -0.358 ng/mL.

What about the “% Change in GIR” value [12] of the same substance?
Its value is -38.57%.

And the “Plasma Insulin Change” value [12]?
The value was -0.174 ng/mL.

What about the “% Change in GIR” value [13] of the same substance?
Its value is -48.67%.

And the “Plasma Insulin Change” value [13]?
Its value is -0.326 ng/mL.

And the “% Change in GIR” value [14]?
Its value is -54.82%.

And the “Plasma Insulin Change” value [14]?
Its value is -0.578 ng/mL.

What about the “% Change in GIR” value [15] of the same substance?
Its value is -58.43%.

What about the “Plasma Insulin Change” value [15] of the same substance?
Its value is -0.367 ng/mL.

What about the “% Change in GIR” value [16] of the same substance?
The value was -63.58%.

What about the “Plasma Insulin Change” value [16] of the same substance?
The value was -0.465 ng/mL.

What about the “% Change in GIR” value [17] of the same substance?
The value was 20.449%.

And the “Plasma Insulin Change” value [17]?
The value was 1.887 ng/mL.

What about the “% Change in GIR” value [18] of the same substance?
Its value is 25.050%.

And the “Plasma Insulin Change” value [18]?
The value was 11.101 ng/mL.

And the “% Change in GIR” value [19]?
Its value is 23.583%.

What about the “Plasma Insulin Change” value [19] of the same substance?
The value was 4.219 ng/mL.

And the “% Change in GIR” value [20]?
Its value is 15.374%.

What about the “Plasma Insulin Change” value [20] of the same substance?
The value was 3.246 ng/mL.

What about the “% Change in GIR” value [21] of the same substance?
Its value is 19.465%.

What about the “Plasma Insulin Change” value [21] of the same substance?
The value was 1.359 ng/mL.

What about the “% Change in GIR” value [22] of the same substance?
The value was 50.305%.

What about the “Plasma Insulin Change” value [22] of the same substance?
The value was -0.208 ng/mL.

What about the “% Change in GIR” value [23] of the same substance?
The value was 71.461%.

What about the “Plasma Insulin Change” value [23] of the same substance?
The value was -0.692 ng/mL.

And the “% Change in GIR” value [24]?
The value was 88.390%.

And the “Plasma Insulin Change” value [24]?
The value was -0.456 ng/mL.

What about the “% Change in GIR” value [25] of the same substance?
Its value is 86.482%.

What about the “Plasma Insulin Change” value [25] of the same substance?
Its value is -0.177 ng/mL.

And the “% Change in GIR” value [26]?
The value was 55.677%.

What about the “Plasma Insulin Change” value [26] of the same substance?
Its value is -0.250 ng/mL.

What about the “% Change in GIR” value [27] of the same substance?
Its value is 11.304%.

What about the “Plasma Insulin Change” value [27] of the same substance?
Its value is -0.301 ng/mL.

And the “% Change in GIR” value [28]?
Its value is -12.411%.

What about the “Plasma Insulin Change” value [28] of the same substance?
Its value is -0.222 ng/mL.

What about the “% Change in GIR” value [29] of the same substance?
Its value is -7.123%.

What about the “Plasma Insulin Change” value [29] of the same substance?
Its value is -0.405 ng/mL.

And the “% Change in GIR” value [30]?
Its value is -17.745%.

What about the “Plasma Insulin Change” value [30] of the same substance?
The value was -0.590 ng/mL.

What about the “% Change in GIR” value [31] of the same substance?
Its value is -15.311%.

What about the “Plasma Insulin Change” value [31] of the same substance?
The value was -0.289 ng/mL.

And the “% Change in GIR” value [32]?
Its value is -21.279%.

And the “Plasma Insulin Change” value [32]?
Its value is -0.280 ng/mL.

Which results are given for “GLP-1(R26)(9-36)NH2 [GLP-1(R26) (9-36)NH2]”?
% Change in GIR [17]: 19.020%; Plasma Insulin Change [17]: 1.692 ng/mL; % Change in GIR [18]: 2.128%; Plasma Insulin Change [18]: 0.693 ng/mL; % Change in GIR [19]: 3.752%; Plasma Insulin Change [19]: 0.025 ng/mL; % Change in GIR [20]: 11.602%; Plasma Insulin Change [20]: 0.204 ng/mL; % Change in GIR [21]: 29.976%; Plasma Insulin Change [21]: 0.063 ng/mL; % Change in GIR [22]: 37.819%; Plasma Insulin Change [22]: 0.185 ng/mL; % Change in GIR [23]: 50.568%; Plasma Insulin Change [23]: -0.125 ng/mL; % Change in GIR [24]: 42.526%; Plasma Insulin Change [24]: 0.134 ng/mL; % Change in GIR [25]: 16.548%; Plasma Insulin Change [25]: -0.550 ng/mL; % Change in GIR [26]: -6.165%; Plasma Insulin Change [26]: -0.336 ng/mL; % Change in GIR [27]: -18.164%; Plasma Insulin Change [27]: 0.027 ng/mL; % Change in GIR [28]: -35.351%; Plasma Insulin Change [28]: -0.100 ng/mL; % Change in GIR [29]: -48.404%; Plasma Insulin Change [29]: 0.399 ng/mL
